Data from EP0066415A2, “N-(arylthioalkyl)-N'-(aminoalkyl)ureas” (A.H. ROBINS COMPANY, INCORPORATED, priority 1981, dated 1982).

Experiments:
[1] = system: Coronary Artery Ligation Induced Arrhythmias; assay: Coronary artery ligation induced arrhythmias; assay type: in vivo, Adult mongrel dogs; conditions: I.V.; Coronary Artery Ligation Induced arrhythmia; conscious dogs; infusion into saphenous vein at 0.5 mg/kg/min
Experimental: Adult mongrel dogs which were in the conscious state were used for the test and cardiac arrhythmias were induced by prior (22-24 hr) surgical preparation in which blood flow through a coronary artery was occluded by use of a constrictor device as reported by Smith et al, 1973. A Grass Model 79 polygraph was used for recording the electrocardiogram (Grass 7P4 preamplifier).
The test compound was administered by infusion (Harvard Model 942 Infusion Pump) into a sapheneous vein to one group of dogs at a rate of 0.5 mg/kg/min. Concentration of compound was adjusted according to the weight of the dog to allow a volume of infusion of 0.5 ml/min. The test compound was administered orally by gavage to another group of dogs at dose levels of 10 to 40 mg/kg. The test compound was prepared in distilled water to give a total volume of 20 ml. Following the administration of the test compound, the heart rate, number of ectopic cardiac beats per min, and the percent ectopic beats (ectopic beats/BR X100) were recorded at 15 min. intervals. The compound was considered active if it abolished the ectopic ventricular frequency and caused a return to normal sinus rhythm within 2 hours of administration.

[2] = system: Ouabain Induced Arrhythmias; assay: Ouabain induced arrhythmias, correction by i.v. infusion; assay type: in vivo, adult mongrel dogs; conditions: Ouabain-Induced arrhythmia, dogs under barbiturate anesthesia, infusion into femoral vein at 1 mg/kg/min
Experimental: correction of existing cardiac arrhythmias of ventri- cular origin was carried out on (1) adult mongrel dogs which were under barbiturate anesthesia during the test. A Grass Model 7 polygraph was used for recording femoral arterial blood pressure (Statham P23AC transducer) and the electrocardiogram (Grass 7P4 preamplifier). Ouabain was given intravenously in an initial dose of 40 µg/kg and in a second dose of […] 30 minutes after the first dose and in subsequent doses of 10 µg/kg which were repeated at 1.5 min. intervals as required for producing cardiac arrhythmias that persisted for at least 15 minutes. When the arrhythmias were established, the test compounds were administered by infusion (Harvard Model 942 Infusion Pump) into a femoral vein at a rate of 1 mg/kg/min. Concentration of compound was adjusted according to the weight of the dog to allow a volume infusion of 1 ml/min. The compound was considered to be active as an antiarrhythmic agent if reversion to the sinus rhythm occurred and this was maintained for at least 30 min.

N'-[2-(Diethylamino)ethyl]-N-(1-methylethyl)-N[2-(phenylsulphonyl)ethyl]urea maleate[1:1] [Example 9]
Correcting Dose Range [1]: 2 to 5 mg/kg
Correcting Dose Range [2]: 4 to 15 mg/kg
